In PMC12071940, “Shortened PGLYRP1 Peptides Regulate Antitumor Activity of Cytotoxic Lymphocytes via TREM-1 Receptor: From Biology to Bioinformatics” (International Journal of Molecular Sciences, 2025):
Ends that are not written are not given here.

Legend:
[1] = test system: TREM-1 receptor; test: Inhibition of cytotoxic activity of PBMC induced by peptide N3; format: cell-based, human; conditions: PBMC preincubated 1 h with peptide (10^−9 M), then N3 added; cytotoxicity after 6 days, K562
Procedure: The inhibitory and activating activities were investigated. To determine the inhibitory activity, PBMC were preincubated with the studied peptides for 1 h, then the activating peptide N3 was added, and the cytotoxic activity of lymphocytes was determined after 6 days.
(§1) For cytotoxicity tests, cells of the K562 line were cultured in 96-well plates (Luoyang Fudau Biotech Co, Luoyang, Henan, China) (6 × 10^4 per well) before the addition of lymphocytes (1.2 × 10^6 per well) and then incubated at 37 °C in an atmosphere with 5% CO2 for 3–20 h. Cytotoxicity was measured using a Cytotox 96 analysis kit (Promega, Madison, WI, USA) after 24 h of incubation in accordance with the manufacturer’s protocol. […] Polyclonal antibodies to Tag7 were obtained from ABclonal (ABclonal, Woburn, MA, USA). Monoclonal antibodies to TREM-1 were obtained from Thermo Fisher Scientific (Thermo Fisher Scientific, Waltham, MA, USA).

[2] = test system: K562 cells; test: Cytotoxic activity of human PBMC incubated 6 days with Tag7 peptides (single or combined), tested on K562 cells; format: cell-based; conditions: single peptide, 10^−9 M, human PBMC 6 days, then K562; n = 5
Procedure: The synthesized peptides were incubated with isolated human PBMC for 6 days. Thereafter, the activated lymphocytes were added to MHC-negative tumor cells of the K562 line, and their cytotoxic effect on these cells was determined.
(§2) The combined effect of these peptides stimulated the activation of cytotoxic lymphocytes. […] In addition, the induction of the cytotoxic effect of lymphocytes is TREM-1-dependent.
K562, RAW264.7 cells were cultivated in RPMI-1640 (Himedia Laboratories Private Limited, Maharashtra, India) with 2 mM L glutamine, 10% FCS (Invitrogen, Carlsbad, CA, USA), with 1% kanamycin (Thermo Fisher Scientific, Waltham, MA, USA). […] CD4+ (CD8+) T-lymphocytes were isolated from the PBMCs using the Dynabeads^TM Untouched^TM Human CD4 T Cells Kit, and NK cells were isolated from PBMC by Dynabeads^TM Untouched^TM Human NK Cells Kit according to the manufacturer’s protocol (Thermo Fisher Scientific, Waltham, MA, USA).
as §1

[3] = test system: MHC-negative tumor cells; conditions: ref [24,27,42]; cited from earlier work
From the text: The interaction of ligands with TREM-1 on the cell membrane leads to dimerization of the receptor, followed by activation of the metalloprotease MMP-9 [37], cleavage, and dissociation of the exodomain from the cell surface. sTREM-1 is considered a biomarker of infection and viral diseases. Further activation of the receptor develops in two ways. Triggering cascades of tyrosine kinases leads to activation of the NFkß factor, expression of pro-inflammatory cytokines, and development of inflammatory processes. In turn, the release of cytokines leads to the appearance of ...

[4] = test system: tumor cells (K562); parameters: method as in printed at the place; conditions: other TREM-1 ligands, 'just as it was shown'; no ref given; cited from earlier work
[5] = test system: TREM-1 receptor; test: Inhibition of cytotoxicity induced by the sum of N9 and N15 peptides; format: cell-based, human; conditions: PBMC with N9 + N15, 6 days; K562
Procedure: as §2, §1

Row | Substance | inhibition of N3-stimulated cytotoxic activity [1] | activation of cytotoxic lymphocytes [2] | stimulation of cytokines and activation of cytotoxic lymphocytes [3] | type of tumor cell death induced [4] | inhibition of cytotoxicity of the sum of N9 and N15 [5]
1 | PASCQQQAR [N9] | inhibited the development of cytotoxic activity stimulated by peptide N3 | do not activate cytotoxic lymphocytes |  |  | 
2 | HMGB1: multifunctional protein, TREM-1 ligand |  |  | not only stimulate the production of pro-inflammatory cytokines but also induce the activation of cytotoxic lymphocytes against MHC-negative tumor cells | induced apoptosis and necroptosis in tumor cells | 
3 | Tag7: innate immunity protein PGLYRP1; recombinant Tag7 |  |  | not only stimulate the production of pro-inflammatory cytokines but also induce the activation of cytotoxic lymphocytes against MHC-negative tumor cells | induced apoptosis and necroptosis in tumor cells | 
4 | RNVQHYHMKT [17.0] | inhibited the development of cytotoxic activity stimulated by peptide N3 | do not activate cytotoxic lymphocytes |  |  | inhibited
5 | Hsp70: main heat shock protein, TREM-1 ligand |  |  | not only stimulate the production of pro-inflammatory cytokines but also induce the activation of cytotoxic lymphocytes against MHC-negative tumor cells | induced apoptosis and necroptosis in tumor cells | 
6 | LQVTDSGLYRCVIYHPP [LP17, reference compound] |  |  |  |  | inhibited
7 | RYVVVSHTAGSSCNT [N15] | had no inhibitory effect on the induction of the TREM-1-dependent signal | do not activate cytotoxic lymphocytes |  |  | 
